# Measurements as given in publication PMC10349806 (Nature Communications, 2023).
# Where “and” joins values, the source holds several entries; their conditions need not be identical. Equal entries are not always repeated.
# Molecular target: T1, PfCRT variant D137N (Plasmodium falciparum, UniProt Q9N623, A220S/D137N/I356T/K76T/M74I/N326S/N75E/Q271E/R371I)
# T1 sequence (Q9N623 1-424 M74I/N75E/K76T/D137N/A220S/Q271E/N326S/I356T/R371I): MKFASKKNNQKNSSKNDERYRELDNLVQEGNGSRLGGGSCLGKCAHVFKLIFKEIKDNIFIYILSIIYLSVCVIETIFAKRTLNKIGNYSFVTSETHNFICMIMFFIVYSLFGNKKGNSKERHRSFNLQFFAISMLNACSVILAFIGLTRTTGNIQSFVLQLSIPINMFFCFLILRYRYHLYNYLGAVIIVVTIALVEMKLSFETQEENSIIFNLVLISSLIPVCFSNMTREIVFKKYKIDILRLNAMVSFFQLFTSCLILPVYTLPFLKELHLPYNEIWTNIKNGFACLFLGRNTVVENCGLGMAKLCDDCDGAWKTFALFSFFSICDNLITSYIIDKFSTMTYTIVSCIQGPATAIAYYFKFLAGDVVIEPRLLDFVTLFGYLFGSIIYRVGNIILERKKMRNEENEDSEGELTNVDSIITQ
# Assay: CQ uptake assay, oocytes expressing D137N
# Type: cell-based
# Protocol: Site-directed mutagenesis of PfCRT^Dd2 was performed as described using the megaprimer method with overlap extension[21],[54]. The primer pairs used are listed in Supplementary Table 6. Please note that a codon-optimized and oocyte-adapted version of PfCRT^Dd2 was used[22] (Supplementary Fig. 16). The resulting DNA fragment was cloned into the SP64T expression vector and verified by sequencing.
# Oocytes were obtained as described previously. Briefly, adult (>2 years old) female X. laevis frogs (NASCO) were anesthetized in a cooled solution of ethyl 3-amino benzoate methanesulfonate (0.1%, w/v), followed by a surgical removal of parts of the ovary. The ovary lobes were carefully dissected and small pieces of oocytes were incubated in Ca^2+-free ND96 buffer (96 mM NaCl, 2 mM KCl, 1 mM MgCl2 buffered with 5 mM HEPES/NaOH, pH 7.5) supplemented with collagenase D (0.1%, w/v; Roche), BSA (0.5%, w/v), and 9 mm Na2HPO4 at 18 °C for 14-16 h while gentle shaking. After incubation, the oocytes were carefully washed several times with ND96 buffer (96 mM NaCl, 2 mM KCl, 1.8 mM CaCl2, 1 mM MgCl2 buffered with 5 mM HEPES/NaOH, pH 7.5) supplemented with 100 mg l^−1 gentamycin). Defolliculated and healthy-looking stage V-VI oocytes were manually selected for RNA microinjection. The RNA was generated as following: The codon-optimized sequences of PfCRT variants were cloned into the pSP64T expression vector. After vector linearization using the restriction endonucleases BamHI or SalI (New England Biolabs), transcription was performed using the in vitro SP6 mMessage mMachine Kit (Ambion)[34]. The obtained RNA was kept at −80 °C and diluted with nuclease-free water to a concentration of 0.6 μg μl^−1. Precision-bore glass capillary tubes (3.5-inch glass capillaries; Drummond Scientific Co.) were pulled on a vertical puller (P-87 Flaming/Brown micropipette puller, Sutter Instrument Co.), graduated, and placed on a microinjector (Nanoject II Auto-Nanoliter Injector, Drummond Scientific Co.). 50 nl of nuclease-free water alone (control oocytes) or 50 nl of 0.6 μg μl^−1 RNA were injected under stereomicroscopic control. Injected oocytes were incubated for 46–72 h at 18 °C with twice-daily buffer changes before usage in experiments.
# Drug uptake assays were performed as described previously[21],[22],[24],[34]. […] The direction of radio-labeled drug transport is here from the mostly acidic extracellular solution (pH 4.5 or 6.0, as indicated) into the oocyte cytosol (pH ∼ 7.2), which corresponds to the efflux of drug from the acidic digestive vacuole (pH 5.2) into the parasite cytoplasm (pH 7.2). The topology of PfCRT in the oolemma is such that both the N- and C-terminus face the extracellular milieu[3],[22]. In the parasite, the N- and C-terminus face the lumen of the digestive vacuole. CQ uptake kinetics were performed by incubating oocytes in ND96 buffer adjusted to a pH of 4.5, 5.0, 5.5, or 6.0 and supplemented with 50 nM [^3H]CQ and one of 7 different CQ concentrations (10 µM, 50 µM, 100 µM, 200 µM, 300 µM, 400 µM, 500 µM CQ). The reaction was stopped at the 60 min time point, which is in the linear uptake range[22],[34] (Supplementary Fig. 17). For determination of the amount of drug uptake for each oocyte, the reaction medium was removed and the oocytes were washed three times with 2 ml of ice-cold ND96 buffer. Each oocyte was individually transferred to a scintillation vial containing 5% sodium dodecyl sulfate (200 μl) for lysis. The radioactivity of each sample was measured using a liquid scintillation analyzer Tri-Carb 4910 TR (PerkinElmer). Oocytes that were injected with water instead of RNA were analyzed in parallel, representing the uptake of a drug by diffusion and/or endogenous permeation pathways. The resulting value represents the “background“ level of drug accumulation in oocytes (in-depth discussion in[22]). […]
# [1] = D137N, 50 µM CQ, 1 h, mean ± SEM
smiles,measurement,setting,value
"CCN(CC)CCCC(C)Nc1ccnc2cc(Cl)ccc12 (stereo not drawn) [CQ, chloroquine]",Activity at pH 4.5,[1],0.57 ± 0.14 pmol h-1 oocyte-1
same,Activity at pH 6.0,[1],0.95 ± 0.18 pmol h-1 oocyte-1
same,R-value,"D137N, CQ transport at pH 4.5 / pH 6.0",0.59 ± 0.04
same,D137N transport activity pH 4.5,"pH 4.5, single replicates, Fig 1d left",0.77 pmol oocyte-1 h-1 and 0.37 pmol oocyte-1 h-1 and 0.63 pmol oocyte-1 h-1
same,D137N R-value,"pH 4.5 vs pH 6.0, Fig 1d left",0.64 and 0.53 and 0.59
same,D137N transport activity pH 6.0,"pH 6.0, single replicates, Fig 1d left",1.20 pmol oocyte-1 h-1 and 0.70 pmol oocyte-1 h-1 and 1.07 pmol oocyte-1 h-1
